Assay results taken from ChEMBL document CHEMBL1146765, “Synthesis and biological activity of some structural modifications of pancratistatin” (2004).

What was measured:
NCI-H460 = experiment: Tested for growth inhibition activity against lung NCI-H460 human cancer cell; type: functional
P388 = experiment: Tested for growth inhibition activity against murine P388 lymphocytic leukemia; type: functional, Mus musculus
KM-20L2 = experiment: Tested for growth inhibition activity against colon KM20L2 human cancer cell; type: functional
MCF7 = experiment: Tested for growth inhibition activity against breast MCF-7 human cancer cell; type: functional
DU-145 = experiment: Tested for growth inhibition activity against prostate DU-145 human cancer cell; type: functional
BXPC-3 = experiment: Tested for growth inhibition activity against pancreas BXPC-3 human cancer cell; type: functional
SF-268 = experiment: Tested for growth inhibition activity against CNS SF-268 human cancer cell; type: functional

Row | Structure (SMILES) | Growth-inhibitory concentration (NCI-H460) [µg/mL] | Growth-inhibitory concentration (P388) [µg/mL] | Growth inhibitory concentration (KM-20L2) [µg/mL] | Growth-inhibitory concentration (MCF7) [µg/mL] | Growth-inhibitory concentration (DU-145) [µg/mL] | Growth-inhibitory concentration (BXPC-3) [µg/mL] | Growth-inhibitory concentration (SF-268) [µg/mL]
1 | O=C1N[C@H]2[C@H](O)[C@H](O)[C@@H](O)[C@H](O)[C@@H]2c2cc3c(cc21)OCO3 | 0.29 | 0.44 | 0.22 | – | – | – | –
2 | COC(=O)N[C@H]1[C@H](OC(C)=O)[C@H](OC(C)=O)[C@@H](OC(C)=O)[C@H](OC(C)=O)[C@@H]1c1cccc(OC)c1 | >10 | 19.3 | >10 | >10 | >10 | >10 | >10
3 | O=C1N[C@H]2[C@H](O)[C@H](O)[C@@H](O)[C@H](O)[C@@H]2c2cc3c(c(O)c21)OCO3 [PANCRATISTATIN] | 0.048 | 0.039 | 0.062 | 0.032 | 0.016 | 0.028 | 0.017
4 | CC(=O)O[C@H]1[C@@H]2NC(=O)c3cc4c(cc3[C@H]2CC[C@H]1OC(C)=O)OCO4 | >10 | 1.1 | >10 | >10 | >10 | >10 | >10
5 | O=C1N[C@@H]2C(=C[C@H](O)[C@@H](O)[C@H]2O)c2cc3c(c(O)c21)OCO3 [NARCICLASINE] | 0.032 | 0.0012 | 0.021 | 0.019 | 0.011 | 0.026 | 0.021
6 | COc1ccc2c(c1)[C@@H]1[C@@H](NC2=O)[C@H](OC(C)=O)[C@H](OC(C)=O)[C@@H](OC(C)=O)[C@@H]1OC(C)=O | >10 | 2.1 | >10 | 4.6 | 6.7 | >10 | >10
7 | O=C1N[C@H]2[C@H](O)[C@H](O)CC[C@@H]2c2cc3c(cc21)OCO3 | >10 | 1.39 | >10 | >10 | >10 | >10 | >10
8 | COc1ccc2c(c1)[C@H]1[C@@H](O)[C@H](O)[C@@H](O)[C@@H](O)[C@@H]1NC2=O | 2.8 | 4.3 | 3.6 | 4.4 | 2.6 | 4.9 | 3.3
